Laboratory results as given in patent US9505786B2, “Substituted annulated triazines and use thereof” (BAYER INTELLECTUAL PROPERTY GMBH, priority 2012, dated 2016).

Columns and labels:
aorta rings = assay: Vasorelaxant effect in vitro (phenylephrine-contracted aorta rings); details: Oryctolagus cuniculus, rabbit aorta rings, organ bath, phenylephrine contraction; read-out: IC50 (concentration needed to reduce the phenylephrine contraction by 50%)
Procedure: B-1. Vasorelaxant Effect In Vitro
Rabbits are stunned by a blow to the neck and exsanguinated. The aorta is removed, freed from adhering tissue and divided into rings of a width of 1.5 mm. The rings are placed individually under an initial tension in 5 ml organ baths with Krebs-Henseleit solution which is at 37° C., is gassed with carbogen and has the following composition (in each case mM): sodium chloride: 119; potassium chloride: 4.8; calcium chloride dihydrate: 1; magnesium sulphate heptahydrate: 1.4; potassium dihydrogenphosphate: 1.2; sodium bicarbonate: 25; glucose: 10. The contractile force is determined with Statham UC2 cells, amplified and digitalized using A/D transducers (DAS-1802 HC, Keithley Instruments Munich), and recorded in parallel on linear recorders.
To produce a contraction, phenylephrine is added to the bath cumulatively in increasing concentration. After several control cycles, the substance to be investigated is added in each further run in increasing dosage in each case, and the height of the contraction achieved is compared with the height of the contraction reached in the last preceding run. This is used to calculate the concentration needed to reduce the magnitude of the control value by 50% (IC50 value). The standard administration volume is 5 μl; the DMSO content in the bath solution corresponds to 0.1%.

[1] = test system: recombinant guanylate cyclase reporter cell line; assay: Effect on a recombinant guanylate cyclase reporter cell line; format: cell-based
Procedure: B-2. Effect on a Recombinant Guanylate Cyclase Reporter Cell Line
The cellular activity of the compounds according to the invention is determined using a recombinant guanylate cyclase reporter cell line, as described in F. Wunder et al., Anal. Biochem. 339, 104-112 (2005).

[2] = target: human phosphodiesterase 5 (PDE 5) (Homo sapiens (Human), UniProt O76074); assay: Inhibition of human phosphodiesterase 5 (PDE 5), SPA assay; format: biochemical; details: PDE 5 preparation from human platelets, [8-3H] cGMP substrate
Procedure: B-6. Inhibition of Human Phosphodiesterase 5 (PDE 5)
PDE 5 preparations are obtained from human platelets by disruption (Microfluidizer®, 800 bar, 3 passes), followed by centrifugation (75 000 g, 60 min, 4° C.) and ion exchange chromatography of the supernatant on a Mono Q 10/10 column (linear sodium chloride gradient, elution with a 0.2-0.3M solution of sodium chloride in buffer (20 mM Hepes pH 7.2, 2 mM magnesium chloride). Fractions having PDE 5 activity are combined (PDE 5 preparation) and stored at −80° C.
To determine their in vitro action on human PDE 5, the test substances are dissolved in 100% DMSO and serially diluted. Typically, dilution series (1:3) from 200 μM to 0.091 μM are prepared (resulting final concentrations in the test: 4 μM to 0.0018 μM). In each case 2 μl of the diluted substance solutions are placed into the wells of microtitre plates (Isoplate-96/200W; Perkin Elmer). Subsequently, 50 μl of a dilution of the above-described PDE 5 preparation are added. The dilution of the PDE 5 preparation is chosen such that during the later incubation less than 70% of the substrate are converted (typical dilution: 1:100; dilution buffer: 50 mM Tris/hydrochloric acid pH 7.5, 8.3 mM magnesium chloride, 1.7 mM EDTA, 0.2% BSA). The substrate, [8-^3H] cyclic guanosine-3′,5′-monophosphate (1 μCi/μl; Perkin Elmer) is diluted 1:2000 with assay buffer (50 mM tris/hydrochloric acid pH 7.5, 8.3 mM magnesium chloride, 1.7 mM EDTA) to a concentration of 0.0005 μCi/μl. By addition of 50 μl (0.025 μCi) of the diluted substrate, the enzyme reaction is finally started. The test mixtures are incubated at room temperature for 60 min and the reaction is stopped by adding 25 μl of a suspension of 18 mg/ml yttrium scintillation proximity beads in water (phosphodiesterase beads for SPA assays, RPNQ 0150, Perkin Elmer). The microtitre plates are sealed with a film and left to stand at room temperature for 60 min. Subsequently, the plates are analysed for 30 s per well in a Microbeta scintillation counter (Perkin Elmer). IC50 values are determined using the graphic plot of the substance concentration against percentage PDE 5 inhibition.

IC50 (aorta rings)	IC50 [2]	Structure (SMILES)	MEC (minimum effective concentration) [1]
0.037 µM	1.2 µM	NC1(C(F)(F)F)C(=O)Nc2nc(-c3nn(Cc4ccccc4F)c4ncccc34)ncc21 (stereo not drawn) [Example 1, 5-Amino-2-[1-(2-fluorobenzyl)-1H-pyrazolo[3,4-b]pyridin-3-yl]-5-(trifluoromethyl)-5,7-dihydro-6H-pyrrolo[2,3-d]pyrimidin-6-one]	30 nM
0.266 µM	2.4 µM	O=C1Nc2nc(-c3nn(Cc4ccccc4F)c4ncccc34)ncc2C1(O)C(F)(F)C(F)(F)F (stereo not drawn) [Example 3, 2-[1-(2-Fluorobenzyl)-1H-pyrazolo[3,4-b]pyridin-3-yl]-5-hydroxy-5-(pentafluoroethyl)-5,7-dihydro-6H-pyrrolo[2,3-d]pyrimidin-6-one]	30 nM
0.215 µM	1.3 µM	NC1(C(F)(F)C(F)(F)F)C(=O)Nc2nc(-c3nn(Cc4ccccc4F)c4ncccc34)ncc21 (stereo not drawn) [Example 4, 5-Amino-2-[1-(2-fluorobenzyl)-1H-pyrazolo[3,4-b]pyridin-3-yl]-5-(pentafluoroethyl)-5,7-dihydro-6H-pyrrolo[2,3-d]pyrimidin-6-one]	100 nM
0.198 µM	2 µM	O=C1Nc2nc(-c3nn(Cc4ccccc4F)c4ncc(F)cc34)nnc2C12CCCC2 [Example 9, 3′-[5-Fluoro-1-(2-fluorobenzyl)-1H-pyrazolo[3,4-b]pyridin-3-yl]spiro[cyclopentane-1,7′-pyrrolo[2,3-e][1,2,4]triazin]-6′(5′H)-one]	30 nM
0.276 µM	0.015 µM	Cc1ccc(Cn2nc(-c3nnc4c(n3)NC(=O)C4(C)C)c3cc(F)cnc32)c(F)c1 [Example 10, 3-[5-Fluoro-1-(2-fluoro-4-methylbenzyl)-1H-pyrazolo[3,4-b]pyridin-3-yl]-7,7-dimethyl-5,7-dihydro-6H-pyrrolo[2,3-e][1,2,4]triazin-6-one]	300 nM
0.237 µM	0.25 µM	COc1cccc(Cn2nc(-c3nnc4c(n3)NC(=O)C4(C)C)c3cc(F)cnc32)c1F [Example 11, 3-[5-Fluoro-1-(2-fluoro-3-methoxybenzyl)-1H-pyrazolo[3,4-b]pyridin-3-yl]-7,7-dimethyl-5,7-dihydro-6H-pyrrolo[2,3-e][1,2,4]triazin-6-one]	300 nM
0.677 µM	0.58 µM	Cc1cccc(Cn2nc(-c3nnc4c(n3)NC(=O)C4(C)C)c3cc(F)cnc32)c1F [Example 12, 3-[5-Fluoro-1-(2-fluoro-3-methylbenzyl)-1H-pyrazolo[3,4-b]pyridin-3-yl]-7,7-dimethyl-5,7-dihydro-6H-pyrrolo[2,3-e][1,2,4]triazin-6-one]	100 nM
1.59 µM	0.66 µM	CCOCCC1(C)C(=O)Nc2nc(-c3nn(Cc4ccccc4F)c4ncc(F)cc34)nnc21 (stereo not drawn) [Example 13, 7-(2-Ethoxyethyl)-3-[5-fluoro-1-(2-fluorobenzyl)-1H-pyrazolo[3,4-b]pyridin-3-yl]-7-methyl-5,7-dihydro-6H-pyrrolo[2,3-e][1,2,4]triazin-6-one]	100 nM
0.42 µM	2 µM	CCOc1ccc(-c2nc(-c3nn(Cc4ccccc4F)c4ncccc34)nc3c2C(C)(C)C(=O)N3)cn1 [Example 14, 4-(6-Ethoxypyridin-3-yl)-2-[1-(2-fluorobenzyl)-1H-pyrazolo[3,4-b]pyridin-3-yl]-5,5-dimethyl-5,7-dihydro-6H-pyrrolo[2,3-d]pyrimidin-6-one]	300 nM
0.738 µM	0.04 µM	CC1(C)C(=O)Nc2nc(-c3nn(Cc4ccccc4F)c4ncccc34)nc(-c3ccn[nH]3)c21 [Example 15, 2-[1-(2-Fluorobenzyl)-1H-pyrazolo[3,4-b]pyridin-3-yl]-5,5-dimethyl-4-(1H-pyrazol-5-yl)-5,7-dihydro-6H-pyrrolo[2,3-d]pyrimidin-6-one]	10 nM
0.617 µM	0.41 µM	CC1(C)C(=O)Nc2nc(-c3nn(Cc4ccccc4F)c4ncccc34)nc(C#CC3CC3)c21 [Example 16, 4-(Cyclopropylethynyl)-2-[1-(2-fluorobenzyl)-1H-pyrazolo[3,4-b]pyridin-3-yl]-5,5-dimethyl-5,7-dihydro-6H-pyrrolo[2,3-d]pyrimidin-6-one]	30 nM
2.38 µM	0.26 µM	CC1(C)C(=O)Nc2nc(-c3nn(Cc4ccccc4F)c4ncccc34)nc(CCC3CC3)c21 [Example 17, 4-(2-Cyclopropylethyl)-2-[1-(2-fluorobenzyl)-1H-pyrazolo[3,4-b]pyridin-3-yl]-5,5-dimethyl-5,7-dihydro-6H-pyrrolo[2,3-d]pyrimidin-6-one]	100 nM
0.836 µM	0.15 µM	CC1(C)C(=O)Nc2nc(-c3nn(Cc4ccccc4F)c4ncccc34)nc(/C=C\C3CC3)c21 [Example 18, 4-[(Z)-2-Cyclopropylvinyl]-2-[1-(2-fluorobenzyl)-1H-pyrazolo[3,4-b]pyridin-3-yl]-5,5-dimethyl-5,7-dihydro-6H-pyrrolo[2,3-d]pyrimidin-6-one]	100 nM
0.345 µM	0.92 µM	Cc1nc2c(cc1F)c(-c1ncc3c(n1)NC(=O)C3(C)C)nn2Cc1ccccc1F [Example 20, 2-[5-Fluoro-1-(2-fluorobenzyl)-6-methyl-1H-pyrazolo[3,4-b]pyridin-3-yl]-5,5-dimethyl-5,7-dihydro-6H-pyrrolo[2,3-d]pyrimidin-6-one]	100 nM
0.779 µM	0.42 µM	CC(C)Cc1nc(-c2nn(Cc3ccccc3F)c3ncccc23)nc2c1C(C)(C)C(=O)N2 [Example 29, 2-[1-(2-Fluorobenzyl)-1H-pyrazolo[3,4-b]pyridin-3-yl]-4-isobutyl-5,5-dimethyl-5,7-dihydro-6H-pyrrolo[2,3-d]pyrimidin-6-one]	100 nM
0.415 µM	0.13 µM	CC1(C)C(=O)Nc2nc(-c3nn(Cc4ccccc4F)c4ncccc34)nc(CCCC(F)(F)F)c21 [Example 30, 2-[1-(2-Fluorobenzyl)-1H-pyrazolo[3,4-b]pyridin-3-yl]-5,5-dimethyl-4-(4,4,4-trifluorobutyl)-5,7-dihydro-6H-pyrrolo[2,3-d]pyrimidin-6-one]	100 nM
0.309 µM	0.26 µM	CC1(C)C(=O)Nc2nc(-c3nn(Cc4ccccc4F)c4ncccc34)nc(CCC(F)(F)F)c21 [Example 31, 2-[1-(2-Fluorobenzyl)-1H-pyrazolo[3,4-b]pyridin-3-yl]-5,5-dimethyl-4-(3,3,3-trifluoropropyl)-5,7-dihydro-6H-pyrrolo[2,3-d]pyrimidin-6-one]	100 nM
0.244 µM	0.11 µM	CCCc1nc(-c2nn(Cc3ccccc3F)c3ncccc23)nc2c1C(C)(C)C(=O)N2 [Example 32, 2-[1-(2-Fluorobenzyl)-1H-pyrazolo[3,4-b]pyridin-3-yl]-5,5-dimethyl-4-propyl-5,7-dihydro-6H-pyrrolo[2,3-d]pyrimidin-6-one]	100 nM
